According to patent publication US11827628B2, “Compositions and methods for inhibition of the JAK pathway” (Rigel Pharmaceuticals, Inc., priority 2005, dated 2023):
Where a name gives a salt, the structure may show the parent alone. Read-outs that look alike come from different tables or passages of the source. One block for each molecule: values may come before it.

Key:
[1] = test system: IL-4 stimulated expression of CD23 in human Ramos B cells (JAK-1 and JAK-3); assay: Assay for Ramos B-Cell Line Stimulated with IL-4 (CD23 upregulation, FACS); type: cell-based; settings: read-out: IC50, Example 41
Method in brief: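 Log-phase Ramos cells, 1 h compound pre-incubation at 37 °C; IL-4 50 units/mL final, 20-24 h; CD23-PE stain, FACS; IC50.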

Primary human T-cells = assay: Primary Human T-Cell Proliferation Assay Stimulated with IL-2 (CellTiter-Glo); type: cell-based; settings: read-out: IC50, Example 42
Method in brief: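 IC50 derived from CellTiter-Glo ATP signal after 72 hours of IL-2-driven proliferation at 37° C. Cells: primary human T-cells from blood, stimulated beforehand 3-4 days on anti-CD3/anti-CD28 with IL-2, then rested from IL-2 before compound exposure in duplicate; IL-2-free wells served as unstimulated control.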

[2] = Ramos B-cell line stimulated with IL-4, CD23 expression by FACS
[3] = primary human T-cell proliferation stimulated with IL-2
[4] = Ramos B cells stimulated with IL-4, CD23 expression by FACS
[5] = primary human T-cells stimulated with IL-2, proliferation
[6] = Homo sapiens, Ramos, Ramos B cells stimulated with IL-4, CD23 expression by FACS
[7] = Homo sapiens, T-cell, primary human T-cells stimulated with IL-2, proliferation
[8] = Homo sapiens, Ramos, Ramos B-cell line stimulated with IL-4, CD23 expression by FACS
[9] = Homo sapiens, T-cell, primary human T-cell proliferation stimulated with IL-2

Molecule: N2-(3-Aminosulfonylphenyl)-N4-(4-chloro-3-trifluoromethylphenyl)-5-fluoro-2,4-pyrimidinediamine [VI-38]
- IC50 [1, 4]: 414 nM
- IC50 (Primary human T-cells; [5]): 2070 nM

Molecule: CCCN(Cc1ccc(Nc2nc(Nc3ccc(C)c(S(N)(=O)=O)c3)ncc2F)cc1)C(N)=O [III-127, N2-(3-aminosulfonyl-4-methyl)phenyl-N4-[4-(N-carbamoyl-N-propyl)aminomethyl]phenyl-5-fluoro-2,4-pyrimidinediamine]
- IC50 [1, 4]: 198 nM
- IC50 (Primary human T-cells; [5]): 612 nM

Molecule: CNC(=O)COc1ccc(Nc2nc(Nc3ccc(C)c(S(N)(=O)=O)c3)ncc2F)cc1Cl [Compound I-148, N2-(3-Aminosulfonyl-4-methylphenyl)-N4-(3-chloro-4-methylaminocarbonylmethoxyphenyl)-5-fluoro-2,4-pyrimidinediamine]
- IC50 [1, 8]: 61.2 nM
- IC50 (Primary human T-cells; [9]): 240 nM

Molecule: COc1c(C)cc(Nc2ncc(F)c(Nc3ccc4c(c3)NC(=O)C(F)(F)O4)n2)cc1S(N)(=O)=O [VII-38, N2-(3-Aminosulfonyl-4-methoxy-5-methylphenyl)-N4-(2,2-difluoro-4H-benz[1,4]oxazin-3-on-6-yl)-5-fluoro-2,4-pyrimidinediamine]
- IC50 [1, 6]: 62.3 nM
- IC50 (Primary human T-cells; [7]): 417 nM

Molecule: COC(=O)c1ccc(Nc2nc(Nc3ccc(C)c(S(N)(=O)=O)c3)ncc2F)s1 [IX-46, N2-(3-Aminosulfonyl-4-methylphenyl)-5-fluoro-N4-(5-methoxycarbonyl-thiophene-2-yl)-2,4-pyrimidinediamine]
- IC50 [1, 6]: 73.9 nM
- IC50 (Primary human T-cells; [7]): 1390 nM

Molecule: NS(=O)(=O)c1ccc(Nc2ncc(F)c(Nc3ccc(Cn4ccnn4)cc3)n2)cc1 [III-96]
- IC50 [1, 4]: 3330 nM
- IC50 (Primary human T-cells; [5]): 2190 nM

Molecule: Cc1nccn1Cc1ccc(Nc2nc(Nc3ccc(S(N)(=O)=O)cc3)ncc2F)cc1 [III-92, N2-(4-Aminosulfonylphenyl)-5-fluoro-N4-[4-(2-methyl-1-imidazolylmethyl)phenyl]-2,4-pyrimidinediamine]
- IC50 [1, 4]: 323 nM
- IC50 (Primary human T-cells; [5]): 1900 nM

Molecule: Cc1ccc(Nc2ncc(F)c(Nc3ccc(OC4CCN(C)CC4)c(Cl)c3)n2)cc1S(N)(=O)=O [II-8, N2-(3-Aminosulfonyl-4-methylphenyl)-5-fluoro-N4-{3-chloro-4-[(1-methylpiperidin-4-yl)oxy]phenyl}-2,4-pyrimidinediamine]
- IC50 [1, 8]: 38.8 nM
- IC50 (Primary human T-cells; [9]): 564 nM

Molecule: CCC(=O)NS(=O)(=O)c1cc(Nc2ncc(F)c(Nc3ccc(OCC#N)c(F)c3)n2)ccc1C [Compound I-49, N4-(4-Cyanomethoxy-3-fluorophenyl)-5-fluoro-N2-(4-methyl-3-propionylaminosulfonylphenyl)-2,4-pyrimidinediamine Sodium Salt]
- IC50 ([1]; Ramos B-cell line stimulated with IL-4, CD23 expression by FACS, sodium salt): 2320 nM
- IC50 (Primary human T-cells; [9]): 5560 nM

Molecule: N2-(3-Aminosulfonyl-4-methoxy-5-methylphenyl)-5-fluoro-N4-(4-trifluoromethylphenyl)-2,4-pyrimidinediamine [VI-34]
- IC50 [1, 4]: 157 nM
- IC50 (Primary human T-cells; [5]): 839 nM

Molecule: Cc1cc(Nc2nc(Nc3ccc(S(N)(=O)=O)cc3)ncc2F)cc(C)c1OCC(N)=O [Compound I-114, N4-(4-Aminocarbonylmethoxy-3,5-dimethyl)phenyl-N2-(4-aminosulfonyl)phenyl-5-fluoro-2,4-pyrimidinediamine]
- IC50 [1, 2]: 448 nM
- IC50 (Primary human T-cells; [3]): 6710 nM

Molecule: Cc1ccc(Nc2ncc(F)c(Nc3ccc(CCC(N)=O)cc3)n2)cc1S(N)(=O)=O [III-47, N4-[4-(2-Aminocarboxylethylene)phenyl]-5-fluoro-N2-(4-methyl-3-aminosulfonylphenyl)-2,4-pyrimidinediamine]
- IC50 [1, 2]: 211 nM
- IC50 (Primary human T-cells; [3]): 366 nM

Molecule: Cc1ccc(Nc2ncc(F)c(Nc3ccc(CCCCO)cc3)n2)cc1S(N)(=O)=O [VI-90, N2-(3-Aminosulfonyl-4-methylphenyl)-5-fluoro-N4-[4-(4-hydroxybutyl)phenyl]-2,4-pyrimidinediamine]
- IC50 [1, 6]: 1080 nM
- IC50 (Primary human T-cells; [7]): 3970 nM

Molecule: Cc1ccc(Nc2ncc(F)c(NC3CN(Cc4ccccc4)CCC3C)n2)cc1S(N)(=O)=O (racemic) [VII-3, Racemic N2-(3-aminosulfonyl-4-methylphenyl)-N4-(1-benzyl-4-methylpiperidin-3-yl)-5-fluoro-2,4-pyrimidinediamine]
- IC50 [1, 4]: 14100 nM
- IC50 (Primary human T-cells; [5]): 16500 nM

The next lines start with results.

- IC50 [1, 2]: 365 nM
Molecule: Cc1cc(Nc2nc(Nc3cccc(S(N)(=O)=O)c3)ncc2F)ccc1NC(=O)CC#N [Compound I-80, N2-(3-Aminosulfonylphenyl)-5-fluoroN4-[3-methyl-4-(N-cyanoacetyl)aminophneyl]-2,4-pyrimidinediamine]
- IC50 (Primary human T-cells; [3]): 470 nM

- IC50 [1, 2]: 190 nM
Molecule: NS(=O)(=O)c1cccc(Nc2ncc(F)c(Nc3cccc(OCc4cccnc4)c3)n2)c1 [Compound I-182, N2-(3-Aminosulfonylphenyl)-5-fluoro-N4-[3-(3-pyridinyl)methyleneoxyphenyl]-2,4-pyrimidinediamine]
- IC50 (Primary human T-cells; [3]): 1130 nM

- IC50 [1, 2]: 204 nM
Molecule: NC(=O)CCc1ccc(Nc2nc(Nc3cccc(S(N)(=O)=O)c3)ncc2F)cc1 [III-48, N4-[4-(2-Aminocarboxylethylene)phenyl]-N2-(3-aminosulfonylphenyl)-5-fluoro-2,4-pyrimidinediamine]
- IC50 (Primary human T-cells; [3]): 218 nM

- IC50 [1, 6]: 190 nM
Molecule: CN(C)S(=O)(=O)c1cccc(Nc2nc(Nc3cccc(S(N)(=O)=O)c3)ncc2F)c1 [IV-9, N2-(3-Aminosulfonylphenyl)-5-fluoro-N4-[3-(N,N-dimethylaminosulfonyl)phenyl]-2,4-pyrimidinediamine]
- IC50 (Primary human T-cells; [7]): 1000 nM

- IC50 [1, 6]: 166 nM
Molecule: NS(=O)(=O)c1ccc(Nc2ncc(F)c(Nc3ccc(-c4cnco4)cc3)n2)cc1 [IV-8, N2-(4-Aminosulfonylphenyl)-5-fluoro-N4-[4-(1,3-oxazol-5-yl)phenyl]-2,4-pyrimidinediamine]
- IC50 (Primary human T-cells; [7]): 627 nM

- IC50 [1, 4]: 333 nM
Molecule: Cc1ccc(Nc2ncc(F)c(Nc3ccc(OC(F)(F)F)cc3)n2)cc1S(N)(=O)=O [VI-32, N2-(3-aminosulfonyl-4-methylphenyl)-5-fluoro-N4-(4-trofluoromethoxyphenyl)-2,4-pyrimidinediamine]
- IC50 (Primary human T-cells; [5]): 1660 nM

- IC50 [1, 4]: 272 nM
Molecule: NS(=O)(=O)c1cccc(Nc2ncc(F)c(Nc3ccc(OC(F)(F)F)cc3)n2)c1 [VI-33, N2-(3-aminosulfonylphenyl)-5-fluoro-N4-(4-trofluoromethoxyphenyl)-2,4-pyrimidinediamine]
- IC50 (Primary human T-cells; [5]): 660 nM

- IC50 [1, 8]: 982 nM
Molecule: NS(=O)(=O)c1cc(Nc2ncc(F)c(Nc3ccc(Oc4cccnc4)cc3)n2)cc(S(N)(=O)=O)c1 [II-15, N2-[3,5-bis(Aminosulfonyl)phenyl)-5-fluoro-N4-[4-(3-pyridyloxy)phenyl]-2,4-pyrimidinediamine]
- IC50 (Primary human T-cells; [9]): 1100 nM

- IC50 [1, 2]: 258 nM
Molecule: Cc1cc(CCC#N)ccc1Nc1nc(Nc2cccc(S(N)(=O)=O)c2)ncc1F [III-24, N2-(3-Aminosulfonylphenyl)-N4-(4-cyanoethylene-2-methylphenyl)-5-fluoro-2,4-pyrimidinediamine]
- IC50 (Primary human T-cells; [3]): 1620 nM

- IC50 [1, 2]: 107 nM
Molecule: N#CCOc1cccc(Nc2nc(Nc3ccc(S(N)(=O)=O)cc3)ncc2F)c1 [Compound I-3, N2-(4-Aminosulfonyl)phenyl-N4-(3-cyanomethoxy)phenyl-5-fluoro-2,4-pyrimidinediamine]
- IC50 (Primary human T-cells; [3]): 987 nM

- IC50 [1, 8]: 246 nM
Molecule: C=CCNC(=O)COc1ccc(Nc2nc(Nc3ccc(S(N)(=O)=O)cc3)ncc2F)cc1 [Compound I-157, N4-(4-Allylaminocarbonylmethoxyphenyl)-N2-(4-aminosulfonylphenyl)-5-fluoro-2,4-pyrimidinediamine]
- IC50 (Primary human T-cells; [9]): 1890 nM

- IC50 [1, 2]: 147 nM
Molecule: COc1cc(Nc2ncc(F)c(Nc3ccc(OC(C)(C)C#N)cc3)n2)ccc1S(N)(=O)=O [Compound I-77, N2-(4-Aminosulfonyl-3-methoxy)phenyl-N4-[4-(1-cyano-1-methyl)ethoxy]phenyl-5-fluoro-2,4-pyrimidinediamine]
- IC50 (Primary human T-cells; [3]): 1620 nM

- IC50 [1, 2]: 306 nM
Molecule: Cn1ccc(NC(=O)Cc2ccc(Nc3nc(Nc4cccc(S(N)(=O)=O)c4)ncc3F)cc2)n1 [III-50, N2-(3-Aminosulfonylphenyl)-5-fluoro-N-4-[4(1-methylpyrazolyl-3-aminocarbonylmethylene)phenyl]-2,4-pyrimidinediamine]
- IC50 (Primary human T-cells; [3]): 1970 nM

- IC50 [1, 2]: 51 nM
Molecule: NS(=O)(=O)c1cccc(Nc2ncc(F)c(Nc3ccc(OCc4ccccn4)cc3)n2)c1 [Compound I-162, N2-(3-Aminosulfonylphenyl)-5-fluoro-N4-[4-(2-pyridinyl)methyleneoxyphenyl]-2,4-pyrimidinediamine]
- IC50 (Primary human T-cells; [3]): 136 nM

- IC50 [1, 8]: 21200 nM
Molecule: NS(=O)(=O)c1cccc(Nc2ncc(F)c(Nc3ccc(Oc4ccncc4)cc3)n2)c1 [II-17, N2-(3-Aminosulfonylphenyl)-5-fluoro-N4-[4-(4-pyridyloxy)phenyl]-2,4-pyrimidinediamine]
- IC50 (Primary human T-cells; [9]): 8210 nM

- IC50 [1, 4]: 197 nM
Molecule: CCNC(=O)NCc1cccc(Nc2nc(Nc3ccc(S(N)(=O)=O)cc3)ncc2F)c1 [III-116, N2-(4-aminosulfonyl)phenyl-N4-(3-ethylaminocarbonylaminomethyl)phenyl-5-fluoro-2,4-pyrimidinediamine]
- IC50 (Primary human T-cells; [5]): 3950 nM

- IC50 [1, 8]: 18300 nM
Molecule: Cc1ccc(Nc2ncc(F)c(Nc3ccc(Oc4ccncc4)cc3)n2)cc1S(N)(=O)=O [II-16, N2-(3-Aminosulfonyl-4-methylphenyl)-5-fluoro-N4-[4-(4-pyridyloxy)phenyl]-2,4-pyrimidinediamine]
- IC50 (Primary human T-cells; [9]): 3720 nM
